Test results from publication PMC12257510, “Structure-Guided Design of a KMT9 Inhibitor Prodrug with Cellular Activity” (Journal of Medicinal Chemistry, 2025).
Where two headings read alike, the source gives them in different places.

What was measured:
KMT9 [1] = molecular target: T1, KMT9 (Homo sapiens, UniProt Q9Y5N5); experiment: KMT9 methyltransferase inhibition assay (3H-SAM, ETF1 substrate)
T1 sequence (Q9Y5N5 1-214): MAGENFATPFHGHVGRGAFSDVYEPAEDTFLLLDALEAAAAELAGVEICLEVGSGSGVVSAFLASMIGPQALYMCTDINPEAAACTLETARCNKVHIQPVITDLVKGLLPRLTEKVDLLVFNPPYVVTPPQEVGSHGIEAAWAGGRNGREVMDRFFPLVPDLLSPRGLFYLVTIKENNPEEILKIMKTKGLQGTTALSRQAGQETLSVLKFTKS
T1 sequence (Q9UI30 1-125 partner): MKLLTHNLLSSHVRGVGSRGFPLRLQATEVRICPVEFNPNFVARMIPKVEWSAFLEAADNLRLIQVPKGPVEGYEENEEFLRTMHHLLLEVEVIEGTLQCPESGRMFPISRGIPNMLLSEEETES
Protocol: The assay was carried out in 0.5 mL Eppendorf tubes in duplicates. Assay buffer consisted of 50 mM BTP, 1 mM MgCl2, 1 mM DTT and 0,01% Triton-X100 at a pH of 8.5 (adjusted using 1 M HCl and 1 M NaOH). 20X inhibitor stock (in DMSO), 2× enzyme stock and 4× substrate mix (both in assay buffer) were prepared. The substrate mix consisted of Tritium-labeled S-adenosylmethionine (3H-SAM), S-adenosylmethionine (SAM) and eukaryotic peptide chain release factor subunit1 (, residues 140–275) (ETF1). Final assay concentrations were set to 25 nM KMT9, 0.3 μM 3H-SAM, 0.7 μM SAM and 5 μM ETF1. […] Five μL of 4× substrate mix was added to initiate the reaction. The final reaction volume was 20 μL. For the positive control, the compound was replaced by DMSO; for the negative control, the compound was replaced by DMSO and KMT9 was replaced by assay buffer. The reaction mix was incubated in an Eppendorf thermomixer comfort at 30 °C for 2 h, shaking at 300 rpm. The reaction was quenched using 5 μL 50% trichloroacetic acid (TCA) and incubated at 25 °C for 5 min. Twenty-two μL of the mixture was transferred into 96-well MultiScreenHTS FB filter plates (Merck KGaA, Darmstadt, Germany) and washed four times with 10% TCA and two times with 100% ethanol. The plate was dried overnight, the filters were transferred into individual 6 mL Pony Vials (PerkinElmer Inc., Waltham, MA, USA) and incubated in 3 mL of Ultima Gold scintillation cocktail (PerkinElmer Inc., Waltham, MA, USA) for 30 min. The scintillation signal was measured for 3× 1 min using TriCarb 2910 TR (PerkinElmer) scintillation counter in 3H CPM mode (LL: 0, UL: 18.6).
Inhibition was calculated using the following formula: Inhibition[%]=(1−xc−xpos/xpos−xneg)×100
With xc: signal of compound, xpos: mean signal of positive control, xneg: mean signal of negative control. Data fitting was carried out by GraphPad 7.0 using nonlinear fit ([Inhibitor] vs response – variable slope (four parameters)).

KMT9 [2] = molecular target: T1, KMT9; experiment: Thermal shift assay (SyproOrange); assay type: binding; conditions: read-out: ΔTm
Protocol: The assay was carried out in 96-well Hard-Shell PCR plates (Bio-Rad Laboratories Inc.). […] Final assay concentrations were set to 500 μM of compound 8, 2 μM KMT9 and 5× SO. One μL of 20× compound, 4 μL of assay buffer, 10 μL of 2× KMT9 and 5 μL of 4× SO were pipetted. For the no-compound control, 20× inhibitor stock was replaced by DMSO. The final volume was 20 μL. The plate was spun down at 700 rpm for 1 min using a Hettich UNIVERSAL 320 centrifuge and incubated at 25 °C, shaking at 600 rpm. After incubation, the plate was spun down for 1 min at 700 rpm and measurement was conducted using a CFX96 Touch Real-Time PCR Detection System (Bio-Rad Laboratories Inc.). The plate was equilibrated at 20 °C for 4 min and then heated stepwise at a rate of 1 °C per 15 s until 95 °C. After every step, fluorescence was measured in FRET mode. Calculation of melting points was conducted by a Boltzman sigmoidal model using GraphPad Prism 7.0.

KMT9 [3] = molecular target: T1, KMT9; experiment: Microscale thermophoresis (MST) binding assay
Protocol: To determine the binding affinity of the compound and KMT9, microscale thermophoresis (MST) analysis was performed with a NanoTemper Monolith NT.115 instrument (NanoTemper Technologies GmbH). KMT9 was labeled with a RED-Tris-NTA labeling kit (NanoTemper Technologies GmbH) based on the manufacturer’s instructions. Buffer including 25 mM HEPES (pH 7.5), 100 mM NaCl, 1 mM DTT and 0.05% Tween was used for the reaction buffer. Varying concentrations of compounds were titrated against His-tag labeled KMT9 proteins (20 nM). Samples were loaded into standard Capillaries (NanoTemper Technologies GmbH) and MST measurements were performed using 40% MST power and 100% LED power. For each set of binding experiments, MST measurement was carried out with Binding Affinity module in MO. Control program under Nano-RED excitation. Data sets were processed with the MO.Affinity Analysis software (NanoTemper Technologies GmbH).

[4] = MST, binding to KMT9, read-out: Kd
[5] = thermal shift, 2 μM KMT9, 500 μM compound

Row | Kd (KMT9 [3]; [4]) | ΔTm at 500 µM (KMT9 [2]; [5]) | Decrease of binding affinity compared to compound 7b (KMT9 [3]; Kd ratio vs compound 7b) | Structure (SMILES) | IC50 (KMT9 [1]) | ΔTm at 500 µM (KMT9 [2]) | Kd (KMT9 [3]) | Reduction of potency compared to compound 2d (KMT9 [3]; vs compound 2d)
1 |  |  |  | Nc1ncnc2c1ncn2[C@@H]1O[C@H](CN(CCCNCCc2ccccc2)CC[C@H](N)C(=O)O)[C@@H](O)[C@H]1O [compound 5b, (S)-2-Amino-4-((((2R,3S,4R,5R)-5-(6-amino-9H-purin-9-yl)-3,4-dihydroxytetrahydrofuran-2-Yyl)methyl)(3-(phenethylamino)propyl)amino)butanoic acid] | 0.034 µM | 20.9 °C | 0.01 µM | 
2 |  |  |  | Nc1ncnc2c1ncn2[C@@H]1O[C@H](CN(CCCNCc2ccccc2)CC[C@H](N)C(=O)O)[C@@H](O)[C@H]1O [compound 5a, (S)-2-Amino-4-((((2R,3S,4R,5R)-5-(6-amino-9H-purin-9-yl)-3,4-dihydroxytetrahydrofuran-2-yl)methyl)(3-(benzylamino)propyl)amino)butanoic acid] | 0.1 µM | 19.6 °C | 0.04 µM | 
3 |  |  |  | NCCCN(CCC(N)C(F)F)C[C@H]1O[C@@H](n2cnc3c(N)ncnc32)[C@H](O)[C@@H]1O (stereo partly drawn) [compound 4b, (2R,3S,4R,5R)-2-(((3-Amino-4,4-difluorobutyl)(3-aminopropyl)amino)methyl)-5-(6-amino-9H-purin-9-yl)tetrahydrofuran-3,4-diol] | 200 µM | 2.86 °C | 100 µM | 
4 | 10.9 µM |  |  | Nc1ncnc2c1ncn2[C@@H]1O[C@H](CSCC[C@H](N)C(=O)O)[C@@H](O)[C@H]1O [SAH, S-adenosyl-L-homocysteine, reference compound] |  |  |  | 
5 | > 500 µM | 3.43 °C |  | NCCCN(CCC(N)C(F)(F)F)C[C@H]1O[C@@H](n2cnc3c(N)ncnc32)[C@H](O)[C@@H]1O (stereo partly drawn) [compound 4c, (2R,3S,4R,5R)-2-(((3-Amino-4,4,4-trifluorobutyl)(3-aminopropyl)amino)methyl)-5-(6-amino-9H-purin-9-yl)tetrahydrofuran-3,4-diol] | 500 µM |  |  | 
6 |  |  |  | NCCCN(C[C@H]1C=CCN1)C[C@H]1O[C@@H](n2cnc3c(N)ncnc32)[C@H](O)[C@@H]1O [compound 4f, (2R,3R,4S,5R)-2-(6-Amino-9H-purin-9-yl)-5-(((3-aminopropyl)(((R)-2,5-dihydro-1H-pyrrol-2-yl)methyl)amino)methyl)tetrahydrofuran-3,4-diol] | 253 µM | -0.52 °C | > 500 µM | 
7 | ~56 µM |  | more than 1000 fold | CNc1ncnc2c1ccn2C1CC(CN(CCCOCCc2ccc(Oc3ccc(Cl)cc3)c(F)c2)CCC(N)C(=O)O)C(O)C1O [compound 7b-N, (S)-2-Amino-4-((3-(4-(4-chlorophenoxy)-3-fluorophenethoxy)propyl)(((1R,2R,3S,4R)-2,3-dihydroxy-4-(4-(methylamino)-7H-pyrrolo[2,3-d]pyrimidin-7-yl)cyclopentyl)methyl)amino)butanoic Acid] |  |  |  | 
8 |  |  |  | Nc1ncnc2c1ncn2[C@@H]1O[C@H](CN(CC[C@H](N)C(=O)O)CC[C@H](N)c2ccccc2)[C@@H](O)[C@H]1O [compound 2a] | 3 µM | 10.6 °C | 15 µM | 
9 |  |  |  | Nc1ncnc2c1ncn2[C@@H]1O[C@H](CN(CCCNCCCc2ccccc2)CC[C@H](N)C(=O)O)[C@@H](O)[C@H]1O [compound 5c, (S)-2-Amino-4-((((2R,3S,4R,5R)-5-(6-amino-9H-purin-9-yl)-3,4-dihydroxytetrahydro-furan-2-yl)methyl)(3-((3-phenylpropyl)amino)propyl)amino)butanoic acid] | 0.064 µM | 21.3 °C | 0.02 µM | 
10 | 0.07 µM | 17.5 °C |  | CNc1ncnc2c1ccn2[C@@H]1C[C@H](CN(CCCNCCc2ccc(Oc3ccccc3)cc2)CC[C@H](N)C(=O)O)[C@@H](O)[C@H]1O [compound 7a, (S)-2-Amino-4-((((1R,2R,3S,4R)-2,3-dihydroxy-4-(4-(methylamino)-7H-pyrrolo[2,3-d]pyrimidin-7-yl)cyclopentyl)methyl)(3-((4-phenoxyphenethyl)amino)propyl)amino) Butanoic acid] | 0.6 µM |  |  | 
11 | 6.8 µM |  |  | Nc1ncnc2c1ncn2[C@@H]1O[C@H](CN(CC[C@H](N)C(=O)O)CC[C@H](N)C(=O)O)[C@@H](O)[C@H]1O [compound 1, (2S,2’S)-4,4’-((((2R,3S,4R,5R)-5-(6-Amino-9H-purin-9-yl)-3,4-dihydroxytetrahydrofuran-2-yl)methyl)azanediyl)bis(2-aminobutanoic Acid)] |  |  |  | 

Row | Structure (SMILES) | Kd (KMT9 [3]; [4]) | ΔTm at 500 µM (KMT9 [2]; [5]) | Decrease of binding affinity compared to compound 7b (KMT9 [3]; Kd ratio vs compound 7b) | IC50 (KMT9 [1]) | ΔTm at 500 µM (KMT9 [2]) | Kd (KMT9 [3]) | Reduction of potency compared to compound 2d (KMT9 [3]; vs compound 2d)
12 | CN(C)CCCN(CC[C@H](N)C(=O)O)C[C@H]1O[C@@H](n2cnc3c(N)ncnc32)[C@H](O)[C@@H]1O [compound 3b, reference compound] | 1 µM |  |  | 6 µM | 9.55 °C |  | ~100 fold
13 | C[C@@H](CN(CCCN)C[C@H]1O[C@@H](n2cnc3c(N)ncnc32)[C@H](O)[C@@H]1O)N1CCC(O)CC1 [compound 4e, (2R,3R,4S,5R)-2-(6-Amino-9H-purin-9-yl)-5-(((3-aminopropyl)((s)-2-(4-hydroxypiperidin-1-yl)propyl)amino)methyl)tetrahydrofuran-3,4-diol] | 50 µM |  |  | > 500 µM | 2.78 °C |  | 
